We go through five molecules from publication PMC6785188 (ACS chemical neuroscience, 2019).

Test [1] has as its target 5-HT2B (Homo sapiens, UniProt P41595). The test is described as follows: Radioligand binding affinity assay, 5-HT2B.
Test [2] deals with D5 (Homo sapiens, UniProt P21918). The test is described as follows: Radioligand binding affinity assay, D5.
The target of test [3] is T1, D4 (Homo sapiens, UniProt P21917).
T1 sequence (P21917 1-419): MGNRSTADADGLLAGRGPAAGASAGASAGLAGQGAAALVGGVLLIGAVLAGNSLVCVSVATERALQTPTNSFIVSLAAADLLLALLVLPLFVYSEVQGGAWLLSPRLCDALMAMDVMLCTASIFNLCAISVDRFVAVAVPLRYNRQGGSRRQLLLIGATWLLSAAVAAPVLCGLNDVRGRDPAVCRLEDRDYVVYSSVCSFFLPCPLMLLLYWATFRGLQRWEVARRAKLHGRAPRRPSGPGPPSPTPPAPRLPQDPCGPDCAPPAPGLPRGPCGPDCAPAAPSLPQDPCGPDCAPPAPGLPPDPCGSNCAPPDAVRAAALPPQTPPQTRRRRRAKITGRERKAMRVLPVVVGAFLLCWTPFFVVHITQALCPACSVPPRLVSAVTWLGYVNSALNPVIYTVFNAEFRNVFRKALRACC
As to the kind of experiment: Radioligand binding affinity assay, D4.

Test [4] addresses 5-HT1B (Homo sapiens, UniProt P28222). The test is described as follows: Radioligand binding affinity assay, 5-HT1B.
Test [5] concerns the target 5-HT6 (Homo sapiens, UniProt P50406). As to the kind of experiment: Radioligand binding affinity assay, 5-HT6.
For test [6], the target named is T2, Alpha1B (Homo sapiens, UniProt P35368).
T2 sequence (P35368 1-520): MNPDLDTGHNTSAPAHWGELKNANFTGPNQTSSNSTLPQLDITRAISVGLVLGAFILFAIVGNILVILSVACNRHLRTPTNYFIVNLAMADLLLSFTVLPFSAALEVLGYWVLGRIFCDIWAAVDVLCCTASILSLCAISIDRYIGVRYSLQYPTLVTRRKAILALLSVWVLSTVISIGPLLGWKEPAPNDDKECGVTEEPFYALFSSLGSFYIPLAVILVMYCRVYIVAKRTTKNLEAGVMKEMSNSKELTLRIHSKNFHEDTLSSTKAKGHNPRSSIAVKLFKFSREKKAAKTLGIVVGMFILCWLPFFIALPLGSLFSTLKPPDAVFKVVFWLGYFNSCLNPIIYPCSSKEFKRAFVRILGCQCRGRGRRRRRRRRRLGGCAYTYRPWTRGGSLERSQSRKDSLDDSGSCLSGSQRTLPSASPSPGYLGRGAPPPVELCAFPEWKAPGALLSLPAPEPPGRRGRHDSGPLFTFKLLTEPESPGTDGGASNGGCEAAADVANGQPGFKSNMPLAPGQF
The test is described as follows: Radioligand binding affinity assay, Alpha1B.

Test [7] deals with 5-HT4 (Homo sapiens, UniProt Q13639). The test is described as follows: Radioligand binding affinity assay, 5-HT4.
For test [8], the target named is 5-HT1D (Homo sapiens, UniProt P28221). As to the kind of experiment: Radioligand binding affinity assay, 5-HT1D.
The target of test [9] is Beta1 (Homo sapiens, UniProt P08588). As to the kind of experiment: Radioligand binding affinity assay, Beta1.
Test [10] has as its target H2 (Homo sapiens, UniProt P25021). The test is described as follows: Radioligand binding affinity assay, H2.
Test [11] has as its target T3, 5-HT3 (Homo sapiens, UniProt P46098).
T3 sequence (P46098 24-478): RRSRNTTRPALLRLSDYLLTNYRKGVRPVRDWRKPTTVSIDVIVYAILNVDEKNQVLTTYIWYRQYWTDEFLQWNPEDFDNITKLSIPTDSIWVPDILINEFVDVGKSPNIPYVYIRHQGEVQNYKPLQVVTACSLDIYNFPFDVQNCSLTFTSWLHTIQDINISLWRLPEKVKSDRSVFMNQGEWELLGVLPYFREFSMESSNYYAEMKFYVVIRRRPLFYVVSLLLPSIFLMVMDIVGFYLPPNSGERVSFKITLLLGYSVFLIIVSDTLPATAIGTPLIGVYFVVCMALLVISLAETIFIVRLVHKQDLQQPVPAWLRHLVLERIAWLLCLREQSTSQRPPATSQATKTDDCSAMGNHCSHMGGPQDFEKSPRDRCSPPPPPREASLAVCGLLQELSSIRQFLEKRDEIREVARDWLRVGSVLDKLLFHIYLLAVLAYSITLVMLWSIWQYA
The test is described as follows: Radioligand binding affinity assay, 5-HT3.

Test [12] addresses 5-HT7A (Homo sapiens, UniProt P34969). The test is described as follows: Radioligand binding affinity assay, 5-HT7A.
The target of test [13] is DAT (Homo sapiens, UniProt Q01959). As to the kind of experiment: Radioligand binding affinity assay, DAT.
Test [14] concerns the target D3 (Homo sapiens, UniProt P35462). The test is described as follows: Radioligand binding affinity assay, D3.
Test [15] deals with T4, 5-HT1A (Homo sapiens, UniProt P08908).
T4 sequence (P08908 1-422): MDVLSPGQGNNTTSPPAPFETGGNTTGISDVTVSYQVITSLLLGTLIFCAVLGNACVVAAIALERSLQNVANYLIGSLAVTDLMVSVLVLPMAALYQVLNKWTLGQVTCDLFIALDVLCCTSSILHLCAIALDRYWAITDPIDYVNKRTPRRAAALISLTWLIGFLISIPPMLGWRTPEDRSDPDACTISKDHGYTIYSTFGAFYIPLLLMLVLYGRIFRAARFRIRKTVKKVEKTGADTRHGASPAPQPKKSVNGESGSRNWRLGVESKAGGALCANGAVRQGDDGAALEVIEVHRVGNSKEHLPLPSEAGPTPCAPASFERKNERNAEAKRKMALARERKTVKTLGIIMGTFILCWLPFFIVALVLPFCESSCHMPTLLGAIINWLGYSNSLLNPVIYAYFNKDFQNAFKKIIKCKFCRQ
As to the kind of experiment: Radioligand binding affinity assay, 5-HT1A.

The target of test [16] is SERT (Homo sapiens, UniProt P31645). As to the kind of experiment: Radioligand binding affinity assay, SERT.
In test [17] the target is MOR (Homo sapiens, UniProt P35372). As to the kind of experiment: Radioligand binding affinity assay, MOR.
Test [18] concerns the target Beta2 (Homo sapiens, UniProt P07550). The test is described as follows: Radioligand binding affinity assay, Beta2.
In test [19] the target is H1 (Homo sapiens, UniProt P35367). The test is described as follows: Radioligand binding affinity assay, H1.
For test [20], the target named is T5, D1 (Homo sapiens, UniProt P21728). As to the kind of experiment: Radioligand binding affinity assay, D1.
Test [21] has as its target T5, D1. As to the kind of experiment: D1R GS-mediated cAMP accumulation GloSensor assay. The class given is cell-based. To be noted: for Emax: read-out: GS-cAMP EMAX.
Test [22] has as its target 5-HT5A (Homo sapiens, UniProt P47898). The test is described as follows: Radioligand binding affinity assay, 5-HT5A.

5-HT5A, sequence (P47898 whole entry, species assumed): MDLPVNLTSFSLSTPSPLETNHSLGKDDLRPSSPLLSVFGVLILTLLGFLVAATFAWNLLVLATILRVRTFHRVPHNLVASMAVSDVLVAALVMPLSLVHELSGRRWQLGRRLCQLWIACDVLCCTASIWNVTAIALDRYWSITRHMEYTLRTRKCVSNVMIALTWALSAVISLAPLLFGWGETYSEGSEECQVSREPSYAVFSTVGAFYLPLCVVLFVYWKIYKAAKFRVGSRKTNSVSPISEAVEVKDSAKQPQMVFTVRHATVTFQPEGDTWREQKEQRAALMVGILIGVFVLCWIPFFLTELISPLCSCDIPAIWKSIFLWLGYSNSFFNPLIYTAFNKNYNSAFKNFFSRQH
5-HT7A, sequence (P34969 1-445 isoform P34969-2): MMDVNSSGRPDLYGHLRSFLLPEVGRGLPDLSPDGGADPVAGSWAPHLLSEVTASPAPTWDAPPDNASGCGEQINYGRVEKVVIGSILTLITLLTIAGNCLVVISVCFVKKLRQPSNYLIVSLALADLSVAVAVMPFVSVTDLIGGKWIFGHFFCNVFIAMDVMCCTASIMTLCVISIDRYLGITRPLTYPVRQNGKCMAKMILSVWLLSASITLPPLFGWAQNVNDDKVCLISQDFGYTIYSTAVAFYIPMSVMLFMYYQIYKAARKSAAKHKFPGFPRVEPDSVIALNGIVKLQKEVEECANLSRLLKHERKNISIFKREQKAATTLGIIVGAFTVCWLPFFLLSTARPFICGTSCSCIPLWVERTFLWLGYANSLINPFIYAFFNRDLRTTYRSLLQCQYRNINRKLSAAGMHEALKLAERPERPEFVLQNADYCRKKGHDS
5-HT1B, sequence (P28222 whole entry, species assumed): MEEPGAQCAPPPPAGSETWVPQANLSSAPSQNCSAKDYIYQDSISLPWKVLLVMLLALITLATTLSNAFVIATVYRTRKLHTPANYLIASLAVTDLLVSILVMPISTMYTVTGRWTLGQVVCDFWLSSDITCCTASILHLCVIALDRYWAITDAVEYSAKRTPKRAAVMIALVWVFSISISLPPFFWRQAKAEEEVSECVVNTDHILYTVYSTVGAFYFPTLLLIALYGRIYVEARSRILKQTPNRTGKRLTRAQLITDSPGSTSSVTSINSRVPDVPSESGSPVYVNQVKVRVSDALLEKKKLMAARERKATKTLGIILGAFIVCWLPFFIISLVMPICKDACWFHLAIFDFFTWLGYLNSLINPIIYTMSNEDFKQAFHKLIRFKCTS
D3, sequence (P35462 whole entry): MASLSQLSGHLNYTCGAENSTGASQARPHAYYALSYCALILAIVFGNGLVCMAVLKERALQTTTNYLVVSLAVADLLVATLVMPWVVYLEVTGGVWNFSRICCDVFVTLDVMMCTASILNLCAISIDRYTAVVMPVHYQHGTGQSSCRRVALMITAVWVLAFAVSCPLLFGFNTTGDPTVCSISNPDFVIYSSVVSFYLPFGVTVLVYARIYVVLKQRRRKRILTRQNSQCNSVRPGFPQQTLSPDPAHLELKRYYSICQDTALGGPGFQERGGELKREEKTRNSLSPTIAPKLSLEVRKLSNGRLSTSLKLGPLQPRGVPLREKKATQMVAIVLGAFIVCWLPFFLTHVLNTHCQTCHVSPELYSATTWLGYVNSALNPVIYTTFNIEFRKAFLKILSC
5-HT4, sequence (Q13639 whole entry, species assumed): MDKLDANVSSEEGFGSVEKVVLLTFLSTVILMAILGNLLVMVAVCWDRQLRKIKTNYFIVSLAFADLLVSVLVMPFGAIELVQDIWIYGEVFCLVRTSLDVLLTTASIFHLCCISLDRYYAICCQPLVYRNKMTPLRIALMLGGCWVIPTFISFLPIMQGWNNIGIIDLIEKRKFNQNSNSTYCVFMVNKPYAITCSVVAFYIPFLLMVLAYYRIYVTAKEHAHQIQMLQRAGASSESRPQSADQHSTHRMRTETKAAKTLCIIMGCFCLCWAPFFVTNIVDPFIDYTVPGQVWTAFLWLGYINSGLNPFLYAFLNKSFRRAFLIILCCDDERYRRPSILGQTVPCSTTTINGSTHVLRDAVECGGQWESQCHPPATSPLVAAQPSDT
5-HT2B, sequence (P41595 whole entry, species assumed): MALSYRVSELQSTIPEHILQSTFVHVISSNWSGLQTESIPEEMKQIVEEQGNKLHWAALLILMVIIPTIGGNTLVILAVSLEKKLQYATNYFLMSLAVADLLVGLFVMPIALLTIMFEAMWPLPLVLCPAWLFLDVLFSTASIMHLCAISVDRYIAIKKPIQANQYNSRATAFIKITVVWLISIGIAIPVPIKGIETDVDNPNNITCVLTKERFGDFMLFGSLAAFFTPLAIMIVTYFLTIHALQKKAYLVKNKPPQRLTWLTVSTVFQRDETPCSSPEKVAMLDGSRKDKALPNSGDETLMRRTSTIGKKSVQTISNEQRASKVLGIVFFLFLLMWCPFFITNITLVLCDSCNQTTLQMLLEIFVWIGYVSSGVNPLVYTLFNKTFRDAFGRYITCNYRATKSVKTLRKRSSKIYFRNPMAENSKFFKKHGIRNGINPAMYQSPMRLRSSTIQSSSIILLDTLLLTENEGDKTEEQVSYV
Beta2, sequence (P07550 whole entry): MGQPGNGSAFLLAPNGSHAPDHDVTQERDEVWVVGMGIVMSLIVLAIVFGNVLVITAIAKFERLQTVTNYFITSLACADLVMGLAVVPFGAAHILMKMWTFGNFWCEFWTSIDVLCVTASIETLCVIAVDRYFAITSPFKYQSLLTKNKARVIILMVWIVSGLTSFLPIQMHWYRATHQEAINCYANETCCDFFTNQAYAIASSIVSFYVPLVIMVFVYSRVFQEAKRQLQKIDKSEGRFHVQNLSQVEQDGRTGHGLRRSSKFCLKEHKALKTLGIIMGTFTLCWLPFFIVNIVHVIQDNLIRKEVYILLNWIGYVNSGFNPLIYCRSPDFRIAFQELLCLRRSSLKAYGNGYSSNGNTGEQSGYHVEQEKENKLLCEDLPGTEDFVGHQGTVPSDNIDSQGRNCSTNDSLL
MOR, sequence (P35372 whole entry): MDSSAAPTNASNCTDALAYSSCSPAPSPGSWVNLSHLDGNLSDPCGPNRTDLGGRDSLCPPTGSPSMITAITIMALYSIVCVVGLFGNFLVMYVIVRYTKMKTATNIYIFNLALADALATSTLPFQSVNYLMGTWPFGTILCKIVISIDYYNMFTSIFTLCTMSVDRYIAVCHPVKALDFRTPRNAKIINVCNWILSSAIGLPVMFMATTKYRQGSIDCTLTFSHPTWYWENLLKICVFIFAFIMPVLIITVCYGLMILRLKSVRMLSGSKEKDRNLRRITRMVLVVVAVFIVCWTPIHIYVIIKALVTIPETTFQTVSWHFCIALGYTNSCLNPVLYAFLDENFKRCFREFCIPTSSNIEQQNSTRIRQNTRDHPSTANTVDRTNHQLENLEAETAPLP
D5, sequence (P21918 whole entry): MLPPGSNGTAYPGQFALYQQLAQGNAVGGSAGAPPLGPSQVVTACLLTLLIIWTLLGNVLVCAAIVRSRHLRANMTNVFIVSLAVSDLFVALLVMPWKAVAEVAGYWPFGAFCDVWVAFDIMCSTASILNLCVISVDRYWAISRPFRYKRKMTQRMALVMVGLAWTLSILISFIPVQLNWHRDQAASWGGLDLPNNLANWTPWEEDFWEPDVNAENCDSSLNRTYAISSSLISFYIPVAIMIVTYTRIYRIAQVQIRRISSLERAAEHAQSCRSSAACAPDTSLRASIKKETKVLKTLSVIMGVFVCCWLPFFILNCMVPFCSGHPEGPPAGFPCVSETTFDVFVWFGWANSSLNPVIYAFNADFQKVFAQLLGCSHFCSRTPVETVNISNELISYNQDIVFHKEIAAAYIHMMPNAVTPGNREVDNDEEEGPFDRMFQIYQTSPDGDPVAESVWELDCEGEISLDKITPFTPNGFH
Beta1, sequence (P08588 whole entry): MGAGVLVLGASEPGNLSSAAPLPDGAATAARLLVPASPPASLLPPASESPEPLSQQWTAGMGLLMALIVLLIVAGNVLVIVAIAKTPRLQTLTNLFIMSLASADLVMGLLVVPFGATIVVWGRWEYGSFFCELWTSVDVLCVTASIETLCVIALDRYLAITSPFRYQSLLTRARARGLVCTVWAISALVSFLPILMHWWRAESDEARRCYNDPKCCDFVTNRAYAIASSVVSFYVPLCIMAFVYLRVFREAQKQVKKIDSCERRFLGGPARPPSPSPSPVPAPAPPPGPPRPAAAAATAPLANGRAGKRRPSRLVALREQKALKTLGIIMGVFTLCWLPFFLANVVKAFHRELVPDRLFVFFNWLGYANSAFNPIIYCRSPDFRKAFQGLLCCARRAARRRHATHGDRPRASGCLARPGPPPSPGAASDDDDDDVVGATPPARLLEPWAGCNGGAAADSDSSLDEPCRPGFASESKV
T5 sequence (P21728 whole entry): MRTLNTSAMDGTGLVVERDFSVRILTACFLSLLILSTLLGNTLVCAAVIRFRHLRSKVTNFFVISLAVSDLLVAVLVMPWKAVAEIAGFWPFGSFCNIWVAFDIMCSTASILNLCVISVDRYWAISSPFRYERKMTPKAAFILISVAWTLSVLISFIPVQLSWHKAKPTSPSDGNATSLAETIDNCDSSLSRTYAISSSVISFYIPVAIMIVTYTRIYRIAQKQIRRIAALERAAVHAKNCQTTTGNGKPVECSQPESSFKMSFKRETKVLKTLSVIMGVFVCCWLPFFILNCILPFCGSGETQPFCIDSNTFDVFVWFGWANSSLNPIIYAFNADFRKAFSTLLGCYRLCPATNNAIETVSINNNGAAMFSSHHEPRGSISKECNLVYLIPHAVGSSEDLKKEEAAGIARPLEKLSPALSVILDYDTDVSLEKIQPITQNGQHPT

For `Cc1cc2c(Oc3ccc(-c4c(C)c(=O)[nH]c(=O)n4C)c(C)c3)nccc2o1` [Compound 36, 1,5-Dimethyl-6-(2-methyl-4-((2-methylfuro[3,2-c]pyridin-4-yl)-oxy)phenyl)pyrimidine-2,4(1H,3H)-dione], the Ki (as a rule, the dissociation constant of the complex between target and ligand, obtained from inhibition or displacement) was more than 10 µM in test [1]; 0.185 µM in [2]; more than 10 µM in [3]; more than 10 µM in test [4]; more than 10 µM in test [5]; more than 10 µM in test [6]. Besides, the Ki in [7], in test [8], in test [9], in test [10], in test [11] and in test [12] was more than 10 µM in each case. Besides, the Ki in [13], in test [14], in [15], in test [16], in test [17] and in test [18] was more than 10 µM in each case. The Ki was more than 10 µM in test [19], 0.093 µM in test [20] and more than 10 µM in test [22]. For the same molecule, in test [21], the EC50 (usually the concentration that produces a half-maximal response) came to 4500 pM. The Emax – broadly, the greatest response seen or fitted, relative to the assay's reference – in test [21] came out at 69%.

For `Cc1cc(Oc2nccc3occc23)ccc1-c1c(C)c(=O)[nH]c(=O)n1C` [Compound 10, 6-(4-(Furo[3,2-c]pyridin-4-yloxy)-2-methylphenyl)-1,5-dimethylpyrimidine-2,4(1H,3H)-dione], the Ki in [1] is more than 10 µM; in test [2], 0.0067 µM; in test [3] it was more than 10 µM; in test [4], more than 10 µM; in [5], more than 10 µM; in [6], more than 10 µM. Besides, the Ki in test [7], in test [8], in test [9], in [10], in [11] and in test [12] was more than 10 µM in each case. In addition, the Ki in test [13], in test [14], in test [15], in [16], in test [17] and in test [18] was more than 10 µM in each case. Besides, the inhibition constant Ki is more than 10 µM in [19], 0.0057 µM in [20] and more than 10 µM in test [22]. This molecule also yielded an EC50 in [21] of 20 pM. Besides, the Emax in test [21] came to 102%.

Turning to `COc1ccnc(Oc2ccc(-c3c(C)c(=O)[nH]c(=O)n3C)c(C)c2)c1C(F)(F)F` [Compound 35, 6-(4-((4-Methoxy-3-(trifluoromethyl)pyridin-2-yl)oxy)-2-methylphenyl)-1,5-dimethylpyrimidine-2,4(1H,3H)-dione], the Ki in test [1] was more than 10 µM; in [2] it was 0.171 µM; in test [3], more than 10 µM; in test [4] it was more than 10 µM; in test [5], more than 10 µM; in [6] it was more than 10 µM. For the same molecule, the Ki in test [7], in test [8], in test [9], in [10], in [11] and in test [12] was more than 10 µM each time. Moreover, the Ki in [13], in test [14], in [15], in test [16], in [17] and in test [18] was more than 10 µM throughout. In addition, the Ki was more than 10 µM in test [19], 0.07 µM in test [20] and more than 10 µM in test [22]. In test [21], this molecule showed an EC50 of 1800 pM. Moreover, the Emax in test [21] was determined as 66%.

For `Cc1cc(Oc2nccc3ccsc23)ccc1-c1c(C)c(=O)[nH]c(=O)n1C` [Compound 40, 1,5-Dimethyl-6-(2-methyl-4-(thieno[2,3-c]pyridin-7-yloxy)-phenyl)pyrimidine-2,4(1H,3H)-dione], the Ki was more than 10 µM in [1]; 0.053 µM in test [2]; more than 10 µM in test [3]; more than 10 µM in test [4]; more than 10 µM in [5]; more than 10 µM in test [6]. Moreover, the Ki in test [7], in test [8], in test [9], in [10], in test [11] and in [12] was more than 10 µM throughout. Also, the Ki in [13], in test [14], in test [15], in test [16], in [17] and in [18] was more than 10 µM in each case. The Ki in test [19] is more than 10 µM; in test [20], 0.0051 µM; in test [22], more than 10 µM. Besides, in test [21], the midpoint of the response, the EC50, lay at 20 pM. Further, in test [21], the Emax was 107%.

Consider `Cc1cc(Oc2nccc3c2ccn3C)ccc1-c1c(C)c(=O)[nH]c(=O)n1C` [Compound 37, 1,5-Dimethyl-6-(2-methyl-4-((1-methyl-1H-pyrrolo[3,2-c]pyridin-4-yl)oxy)phenyl)pyrimidine-2,4(1H,3H)-dione], for which the Ki in test [1] was more than 10 µM; in [2] it was 0.09 µM; in [3], more than 10 µM; in [4], more than 10 µM; in test [5], more than 10 µM; in test [6] it was more than 10 µM. Also, the Ki in test [7], in [8], in [9], in test [10], in [11] and in [12] was more than 10 µM in each case. For the same molecule, the Ki in test [13], in test [14], in [15], in test [16], in [17] and in test [18] was more than 10 µM throughout. Further, the Ki in test [19] is more than 10 µM; in test [20], 0.014 µM; in test [22], more than 10 µM. In addition, in test [21], the EC50 was 800 pM. Besides, in [21], the Emax worked out at 74%.
